A short description of data set [1]: Viscosity investigation (Brookfield viscometer DV-II+). The class given is physicochemical. From the text:
• a. Dispersion Characterization • PVAP, HPMC, or Verapamil HCl was dispersed in 0.1N HCl or phosphate buffer, pH 6.8. Viscosity was characterized neat and in binary or tertiary mixtures. • b. Dry Blending Mixtures Characterization • i.

The nature of data set [2]: Verapamil Hydrochloride and PVAP chemical interaction (precipitate on combining saturated methanol solutions). The class given is physicochemical. To be noted: 50 grams of each combined. From the text:
To determine that the influence on the drug release is not due to the chemical interaction between Verapamil HCL and PVAP, following investigation was made.
• a. Purpose—To determine if change in drug release is due to polymer drug interaction, where increasing PVAP would potentially cause decreased drug release due to binding with the drug. • b. Method— • i. Dissolved 20 grams of Verapamil Hydrochloride in 52 grams of methanol to form a saturated solution. • ii. Dissolved 10 grams of PVAP in 52 grams of methanol to form a saturated solution. • iii. A clear solution was obtained for each sample. • iv. 50 grams of each solution was combined and examined for the presence of a precipitate. • v. […] Conclusion • A lack of chemical interaction has been shown between PVAP and the drug which is contra to some of previously published studies on the interactions of Verapamil HCl with enteric polymers. It also rules out that the reduction of drug release by using PVAP is due to a chemical interaction with Verapamil HCl.

This is an account of results in patent US20070048377A1, “Drug compositions containing controlled release hypromellose matrices” (priority 2005, published 2007).

Structures can show the parent of a compound that is named as a salt.

Take `COc1ccc(CCN(C)CCCC(C#N)(c2ccc(OC)c(OC)c2)C(C)C)cc1OC` (stereo not drawn) [Verapamil HCl - 48% solution, Verapamil Hydrochloride]: the Viscosity amounted to 50.8 cP in data set [1] (0.1N HCl) and 12.4 cP in data set [1] (Phosphate Buffer, pH 6.8). Moreover, the “presence of a precipitate (chemical interaction with PVAP)” value in data set [2] was “no precipitate formed”.
